US20220233624A9, “ANTI-CANCER AND ANTI-PROLIFERATIVE COMPOSITIONS, AND METHODS FOR THEIR USE IN TREATING CANCER” (Natreon, Inc., priority 2020, published 2022)
pIC50: −log10 of the molar value. “And” between values parts separate entries of the source, which are not always exact repeats. Equal values may be shown once. Read-outs that look alike come from different tables or passages of the source.

Assays:
[1] = test system: Prostate cancer (PC-3) cells; assay: Anti-proliferation assay on prostate cancer cells; assay type: cell-based; settings: Homo sapiens
Description: Cells were plated at 1.25 k/well in 384 well plates. […] Anti-proliferative assays were generally performed as discussed in Example I above, in triplicate, with detection reagent CellTiterGlo. Tables 80-82 show data for controls for assays on prostate cancer (PC-3 cells), and that the data passed quality control parameters. Tables 83-85 show data for controls for assays on ovarian cancer (OVCAR-3 cells), and that the data passed quality control parameters.

[2] = test system: Breast Cancer PDCs, ER/PR+ Her2 equivocal (HR+); assay: Anti-proliferation assay on breast cancer HR+ PDCs; assay type: cell-based, human; settings: drug alone @ 10 uM; for inhibition at 10 µM: Homo sapiens
Description: (§1) The outermost rows/columns of the plates were filled with PBS (pH 7.4) to avoid an edge-effect and were considered as blanks. Standardized aqueous extracts identified in Table 2 were prepared in main stock solutions by dissolving 1 mg of extract in 1 ml PBS (phosphate-buffered saline, pH 7.4). […] The plate was incubated in a CO2 incubator for 0/N incubation for 24 hours. […] Once extracts were added to incubated cells and mixed gently, the plate was given a brief spin and incubated in the CO2 incubator for 72 hours. The plate was removed from the incubator and 10 ul of detection reagent (CellTiterGlo®; Promega Corporation, Wisconsin, USA) added to each well of the 384 well plate. […] The assay described above is a two-dimensional (2D) assay.

[3] = test system: Breast Cancer PDCs, Triple negative (TN), SB 36344; assay: Anti-proliferation assay on breast cancer TN PDCs; assay type: cell-based, human; settings: drug alone @ 10 uM; for inhibition at 10 µM: Homo sapiens
Description: as §1

[4] = test system: Acute Promyelocytic Leukemia PDCs (APL-SB 46120); assay: Anti-proliferation assay on APL subtype AML PDCs; assay type: cell-based; settings: Homo sapiens
Description: (§2) In this Example, AML drugs were used as disease specific controls.
The AML PDCs evaluated below were an Acute Promyelocytic Leukemia (APL, APML) subtype, APL-SB 46120, from a human subject.
IC25 values were calculated using IC50 and hill slope. […] The drugs were used in these concentrations on the new APL subtype cells as described further below. […]

[5] = test system: Histiocytic lymphoma (U-937) cells; assay: Anti-proliferation assay on histiocytic lymphoma cells; assay type: cell-based; settings: Homo sapiens
Description: Cells were plated at 1.25 k/well in 384 well plates. […] Anti-proliferative assays were generally performed as described in Example I above, in triplicate, with detection reagent CellTiterGlo. Tables 98-99 show data for controls for assays on histiocytic lymphoma (U-937) cells, and that the data passed quality control parameters. Tables 101-102 show data for controls for assays on pancreatic cancer (Panc-1) cells, and that the data passed quality control parameters. […] The assay is generally as described in Example I.

[6] = test system: CLL (Chronic lymphocytic leukemia) PDCs; assay: Anti-proliferation assay on CLL PDCs; assay type: cell-based, human; settings: for inhibition at 10 µM: Homo sapiens
Description: as §1

[7] = test system: AML (Acute myeloid leukemia) PDCs, M4 subtype (SB 33866); assay: Anti-proliferation assay on AML PDCs; assay type: cell-based, human; settings: for inhibition at 10 µM: assay drug control @ 10 uM
Description: Anti-proliferation assays were performed on 6 types of primary patient-derived cancer cells (PDCs) from 6 different human donors, as described in Table 1:
Tests were performed in 384-well plates (24×16), using 1250 to 10,000 cells/well depending on the size and proliferation rate of different PDCs, in 30 ul of culture media (DMEM/F12 with serum and growth factors), with control wells set aside on each plate for media alone (4 wells), untreated PDCs (4 wells), and for PDCs treated with 10 ul of a known anti-cancer drug as a control. […] The outermost rows/columns of the plates were filled with PBS (pH 7.4) to avoid an edge-effect and were considered as blanks.
Standardized aqueous extracts identified in Table 2 were prepared in main stock solutions by dissolving 1 mg of extract in 1 ml PBS (phosphate-buffered saline, pH 7.4).
Anti-Proliferation Assay Protocol: 30 ul of cells were plated at the density of 1250 to 10,000 cells/well. The plate was incubated in a CO2 incubator for 0/N incubation for 24 hours. […] Final assay concentrations of made from stock solutions of standardized aqueous extracts identified in Table 2 were 100 ug/ml, 30 ug/ml, and 10 ug/ml. Since 10 ul extract was added to 30 ul of cell suspension, it diluted 4 times, so to maintain the final assay concentrations, 4× concentrated extract solutions (400 ug/ml, 120 ug/ml, and 40 ug/mo) were prepared from main stock (1 mg/ml) and added to the plate. In all experiments, 10 ul of 4 times concentrated stock (4×) was added to wells containing 30 ul of cell suspension to achieve final assay concentrations at 1X.
Once extracts were added to incubated cells and mixed gently, the plate was given a brief spin and incubated in the CO2 incubator for 72 hours. The plate was removed from the incubator and 10 ul of detection reagent (CellTiterGlo®; Promega Corporation, Wisconsin, USA) added to each well of the 384 well plate. The plate was incubated (10 min) and luminescence counts measured, with luminescence produced proportional to the number of viable (living, metabolically active) cells for each assay. The assay described above is a two-dimensional (2D) assay.
as §2
As discussed above in Example I, 6 extracts (Ayuflex®, Capros®, Phyto-BGS®, PrimaVie®, Sensoril®, and Ayuric®) were tested on AML PDC-SB cells (33866, M-4 type, subject) at 3 concentrations: 100 ug/ml, 30 ug/ml, and 10 ug/ml.

[8] = 10 uM, 72 h, read-out: % Inhibition Average (SD)
[9] = 10 uM, 72 h, read-out: % Inhibition n1
[10] = 10 uM, 72 h, read-out: % Inhibition n2
[11] = 10 uM, 72 h, read-out: % Inhibition n3
[12] = drug 10 uM, read-out: inhibition
[13] = read-out: % Inhibition, single replicates

COc1cccc2c1C(=O)c1c(O)c3c(c(O)c1C2=O)C[C@@](O)(C(=O)CO)C[C@@H]3O[C@H]1C[C@H](N)[C@H](O)[C@H](C)O1 [Doxorubicin, doxorubicin]
inhibition at 10 µM [1, 8]: 70%
inhibition at 10 µM [1, 9]: 70%
inhibition at 10 µM [1, 10]: 70%
inhibition at 10 µM [1, 11]: 71%
inhibition at 10 µM [1, 12]: 70%
inhibition at 10 µM ([2]; read-out: % Inhibition Avg): 78%
inhibition at 10 µM [2, 13]: 75%
% Inhibition Avg ([2]; 10 µM): 77%
% Inhibition, single replicates ([2]; 10 µM): 81%
inhibition at 10 µM ([3]; read-out: % Inhibition Avg): 73%
inhibition at 10 µM [3, 13]: 73%
% Inhibition Avg ([3]; 10 µM): 93%
% Inhibition, single replicates ([3]; 10 µM): 72% and 91% and 92%
inhibition at 10 µM ([4]; Plate 1 quality control, read-out: % Inhibition Average): 96%
inhibition at 10 µM ([4]; Plate 1 quality control, read-out: % Inhibition n1): 97%
inhibition at 10 µM ([4]; Plate 1 quality control, read-out: % Inhibition n2): 96%
inhibition at 10 µM ([4]; Plate 1 quality control, read-out: % Inhibition n3): 95%
inhibition at 10 µM ([4]; Plate 2 quality control, read-out: % Inhibition Average): 97%
inhibition at 10 µM ([4]; Plate 2 quality control, read-out: % Inhibition n1): 98%
inhibition at 10 µM ([4]; Plate 2 quality control, read-out: % Inhibition n2): 97%
inhibition at 10 µM ([4]; Plate 2 quality control, read-out: % Inhibition n3): 97%
inhibition at 10 µM [5, 8]: 100%
inhibition at 10 µM [5, 9]: 100%
inhibition at 10 µM [5, 10]: 100%
inhibition at 10 µM [5, 11]: 100%
inhibition at 10 µM [5, 12]: 100%
inhibition at 10 µM ([6]; Doxorubicin @ 10 uM, read-out: % Inhibition Avg): 2%
inhibition at 10 µM ([6]; Doxorubicin @ 10 uM, read-out: % Inhibition n1): 16%
inhibition at 10 µM ([6]; Doxorubicin @ 10 uM, read-out: % Inhibition n2): -9%
inhibition at 10 µM ([6]; Doxorubicin @ 10 uM, read-out: % Inhibition n3): 1%
inhibition at 10 µM ([6]; drug alone @ 10 uM, read-out: % Inhibition Avg): 55%
inhibition at 10 µM ([6]; drug alone @ 10 uM, read-out: % Inhibition, single replicates): 50%
% Inhibition, single replicates ([6]; drug alone @ 10 uM, 10 µM): 61%
anti-cancer activity (in words) ([6]; extracts 100, 30, 10 ug/ml, doxorubicin 10 uM): relatively low inhibitory activity
Inhibitory Concentration IC75 ([7]; AML cells (M4)): 260 nM
inhibition at 10 µM ([7]; Homo sapiens, read-out: % Inhibition Avg): 72%
inhibition at 10 µM ([7]; Homo sapiens, read-out: % Inhibition n1): 70%
inhibition at 10 µM ([7]; Homo sapiens, read-out: % Inhibition n2): 73%
inhibition at 3 µM ([7]; Homo sapiens, drug alone 3 uM, read-out: inhibition of AML proliferation): 100%
inhibition at 3 µM ([7]; Homo sapiens, drug alone @ 3 uM, read-out: % Inhibition Avg): 100%
inhibition at 3 µM ([7]; Homo sapiens, drug alone @ 3 uM, read-out: % Inhibition n1): 100%
inhibition at 3 µM ([7]; Homo sapiens, drug alone @ 3 uM, read-out: % Inhibition n2): 100%
inhibition at 3 µM ([7]; Homo sapiens, drug alone @ 3 uM, read-out: % Inhibition n3): 100%
pIC50 ([7]; Homo sapiens, AML cells (M4), read-out: Inhibitory Concentration IC50): 6.99
